In paper PMC10748408 (Frontiers in Oncology, 2023):

Test system: tumor-bearing mice
Experiment: Serum biochemical parameters (ALT, AST, creatinine, urea) of tumor-bearing mice treated with ART
Assay type: in vivo, BALB/c mice
Details: 7 days
Method: Mouse mammary 4T1 cells in passage numbers between 7 and 12 (10^4 cells/ml in 50 µl PBS) were injected into the inguinal 4th mammary fat pad of BALB/c mice ([23], [24]). Normal mice received an equal volume of sterile PBS. A palpable tumor was allowed to develop for 14 days ([24]). […] Normal (mammary fat pad surrounding the 4th inguinal mammary pad), mammary tumor, and organs like lungs, kidney, liver, and blood were collected at the end of the experimental schedule. Body weight and tumor volume of each mouse were recorded daily during the tenure of the experiment. Tumor volume was calculated using the following formula: length (mm) × width^2 (mm) × 0.52 ([25]). Levels of alanine aminotransferase (ALT) and aspartate aminotransferase (AST) from the serum were determined using ALT and AST estimation kits (Robonik India Pvt. Ltd, India). Briefly, for ALT activity estimation, Reagent 1 (Tris Buffer, L-Alanine, Lactate Dehydrogenase) and Reagent 2 (α-ketoglutarate, NADH) was mixed (4:1) with 100 µl serum. After 60 seconds incubation, absorbance was measured at 340 nm every minute for 180 seconds (ΔA/minute). Finally, the activity was estimated using the formula: Activity of the sample = (ΔA/minute x 1746). Analysis and final calculations were carried out according to the manufacturer’s protocol ([29]) For AST activity estimation, Reagent 1 (Tris Buffer, L-Aspartate, Lactate Dehydrogenase; >600U/L, Malate dehydrogenase; >600U/L) and Reagent 2 (α-ketoglutarate, NADH) was mixed together (4:1) with 100 µl serum. After incubation for 60 seconds, absorbance was measured at 340 nm per minute for 180 seconds (ΔA/minute). Finally, the activity was estimated using the formula: Activity of the sample = (ΔA/minute x 1746). Analysis and final calculations were carried out according to the manufacturer’s protocol ([30]). For estimation of creatinine level, picric acid (0.5 ml), buffer (0.5 ml) and sample (Test)/standard (S) (0.1 ml) were mixed and absorbance was measured at 520 nm for 30 seconds and 60 seconds. The rate of change of absorbance was determined for the standard (ΔS) and test (ΔT) samples. The levels were estimated using the formula: creatinine (mg/dl) = (ΔT)/(ΔS) x 2.0 ([31]). Urea levels were estimated using specific metabolite analysis kits. Buffer (1 ml), enzyme (0.1 ml), sample (test)/standard (0.1 ml) and chromogen reagent (0.2 ml) were mixed. Absorbance was measured at 570 nm after 5 minutes of incubation of test (Abs T) and standard (Abs S) samples. The levels were estimated using the formula: Urea (mg/dl) = (AbsT)/(AbsS) x 40. Analysis and calculations were carried out according to the manufacturer’s protocol ([32]).

`C[C@@H]1CC[C@H]2[C@@H](C)C(=O)O[C@@H]3O[C@@]4(C)CC[C@@H]1[C@]32OO4` [ART, Artemisinin] gave an ALT (ART 6.25 mg/kg body wt i.p.) of 43.8 ± 1.8 U/l, an AST (ART 6.25 mg/kg body wt i.p.) of 38.6 ± 2.6 U/l and a Creatinine (ART 6.25 mg/kg body wt i.p.) of 1.21 ± 0.21 mg/dL. The Urea (ART 6.25 mg/kg body wt i.p.) was 44.5 ± 1.8 mg/dL, the ALT (ART 12.5 mg/kg body wt i.p.) was 41.3 ± 3.1 U/l and the AST (ART 12.5 mg/kg body wt i.p.) was 38.2 ± 2.4 U/l. The Creatinine (ART 12.5 mg/kg body wt i.p.) was 0.85 ± 0.18 mg/dL, the Urea (ART 12.5 mg/kg body wt i.p.) was 32.3 ± 0.5 mg/dL and the ALT (ART 25 mg/kg body wt i.p.) was 38.9 ± 2.9 U/l. It also gave an AST (ART 25 mg/kg body wt i.p.) of 33.2 ± 2.8 U/l, a Creatinine (ART 25 mg/kg body wt i.p.) of 0.71 ± 0.16 mg/dL and a Urea (ART 25 mg/kg body wt i.p.) of 32.2 ± 1.1 mg/dL. For the same compound, the ALT (ART 50 mg/kg body wt i.p.) was 36.6 ± 1.6 U/l, the AST (ART 50 mg/kg body wt i.p.) was 31.8 ± 2.9 U/l and the Creatinine (ART 50 mg/kg body wt i.p.) was 0.68 ± 0.11 mg/dL. It also gave a Urea (ART 50 mg/kg body wt i.p.) of 27.1 ± 1.4 mg/dL.
